We go through six compounds from US20100056570A1, “FUNGICIDES” (Syngenta Crop Protection, Inc., priority 2006, published 2010).

For `CSC(Oc1cc2cc(Br)cnc2cc1C)C(=O)NC(C)(C)C` (stereo not drawn) [12 (13), 2-(3-Bromo-7-methyl-quinolin-6-yloxy)-N-tert-butyl-2-methylsulfanyl-acetamide], the melting point (in general, the temperature of the solid-liquid transition) was 132 to 134 °C. For `CSC(Oc1cc2cc(I)cnc2cc1F)C(=O)NC(C)(C)C` (stereo not drawn) [12 (7), 2-(3-iodo-7-fluoro-quinolin-6-yloxy)-N-tert-butyl-2-methylsulfanyl-acetamide] the value was 165 to 166 °C; for `CSC(Oc1cc2cc(-c3ccsc3)cnc2cc1F)C(=O)NC(C)(C)C` (stereo not drawn) [12 (30), N-tert-butyl-2-(7-fluoro-3-thiophen-3-yl-quinolin-6-yloxy)-2-methylsulfanyl-acetamide], 170 to 173 °C; for `COCC#CC(C)(C)NC(=O)C(C)(S)Oc1cc2cc(-c3ccsc3)cnc2cc1F` (stereo not drawn) [251 (30), 2-(7-Fluoro-3-thiophen-3-yl-quinolin-6-yloxy)-N-(4-methoxy-1,1-dimethyl-but-2-ynyl)-2-methyl-sulfanyl-acetamide], 132 to 134 °C.

In turn, `CSC(Oc1cc2cc(Br)cnc2cc1Cl)C(=O)NC(C)(C)C` (stereo not drawn) [12 (2), 2-(3-Bromo-7-chloro-quinolin-6-yloxy)-N-tert-butyl-2-methylsulfanyl-acetamide] registered a melting point of 172 to 174 °C. For `CSC(Oc1cc2cc(Br)cnc2cc1F)C(=O)NC(C)(C)C` (stereo not drawn) [12 (6), 2-(3-Bromo-7-fluoro-quinolin-6-yloxy)-N-tert-butyl-2-methylsulfanyl-acetamide] the value was 144 to 145 °C.
